Read-outs that look alike come from different tables or passages of the source.
Target: T1, STAT6 (Homo sapiens, UniProt P42226)
T1 construct: endogenous in cells; host or cells: MOLM-16, KU-812, SKNO1, MB231, L1236
T1 sequence (P42226 1-847): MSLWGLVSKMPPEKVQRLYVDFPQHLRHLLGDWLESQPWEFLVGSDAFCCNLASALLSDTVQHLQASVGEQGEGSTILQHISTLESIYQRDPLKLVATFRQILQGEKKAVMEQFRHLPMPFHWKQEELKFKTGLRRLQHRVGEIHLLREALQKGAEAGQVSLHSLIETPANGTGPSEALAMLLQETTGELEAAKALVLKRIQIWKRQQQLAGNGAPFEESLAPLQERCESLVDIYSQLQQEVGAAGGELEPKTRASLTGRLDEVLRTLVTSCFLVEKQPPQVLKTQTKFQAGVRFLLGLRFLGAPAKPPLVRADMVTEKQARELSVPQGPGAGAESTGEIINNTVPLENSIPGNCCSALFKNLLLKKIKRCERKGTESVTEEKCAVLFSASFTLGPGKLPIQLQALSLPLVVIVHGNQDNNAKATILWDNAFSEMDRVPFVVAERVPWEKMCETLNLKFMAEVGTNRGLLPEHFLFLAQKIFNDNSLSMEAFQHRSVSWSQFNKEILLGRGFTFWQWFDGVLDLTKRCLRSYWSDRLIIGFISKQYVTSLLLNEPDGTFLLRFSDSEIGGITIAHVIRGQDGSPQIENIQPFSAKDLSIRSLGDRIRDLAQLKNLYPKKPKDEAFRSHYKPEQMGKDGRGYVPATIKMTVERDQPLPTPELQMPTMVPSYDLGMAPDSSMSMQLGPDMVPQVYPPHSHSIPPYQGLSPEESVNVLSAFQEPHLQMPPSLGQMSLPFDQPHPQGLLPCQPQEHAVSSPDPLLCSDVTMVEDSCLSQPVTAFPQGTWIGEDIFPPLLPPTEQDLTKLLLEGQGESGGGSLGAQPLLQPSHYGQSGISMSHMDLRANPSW
Assay: Immunoblotting (Western blot) analysis of STAT6 degradation efficiency of degraders in treated cells
Type: cell-based
Method in brief: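 Protein levels of STAT5 and STAT6 were assessed in cells cultured at 37 °C in 10% FBS medium after compound exposure, by quantitative fluorescent Western blotting normalised to equal loading and referenced to GAPDH.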

[1] = MOLM-16 cells, class symbols, read-out: DC50 S6 MOLM-16
[2] = L1236 cells, read-out: DC50 S6 L1236

DC50 [1] [µM]	DC50 (MOLM-16 cells, numeric bound, read-out: DC50 S6 MOLM-16) [µM]	Compound	DC50 [2] [µM]
> 10	–	CC(C)(C)[C@H](NC(=O)c1cc2cc(C(F)(F)P(=O)(O)O)ccc2s1)C(=O)N1Cc2cc(OCC(=O)NCCCCCC#Cc3ccc4c(c3)C(=O)N(C3CCC(=O)NC3=O)C4=O)ccc2C[C@H]1C(=O)N1CCO[C@H](c2ccccc2)C1 (stereo partly drawn) [Compound 544, ((2-(((2S)-1-((3S)-7-(2-((7-(2-(2,6-dioxopiperidin-3-yl)-1,3-dioxoisoindolin-5-yl)hept-6-yn-1-yl)amino)-2-oxoethoxy)-3-((R)-2-phenylmorpholine-4-carbonyl)-3,4-dihydroisoquinolin-2(1H)-yl)-3,3-dimethyl-1-oxobutan-2-yl)carbamoyl)benzo[b]thiophen-5-yl)difluoromethyl)phosphonic acid]	–
> 10	–	CC(C)(C)[C@H](NC(=O)c1cc2cc(C(F)(F)P(=O)(O)O)ccc2s1)C(=O)N1Cc2cc(OCC(=O)NCCCC#Cc3ccc4c(c3)C(=O)N(C3CCC(=O)NC3=O)C4=O)ccc2C[C@H]1C(=O)N1CCO[C@H](c2ccccc2)C1 (stereo partly drawn) [Compound 540, ((2-(((2S)-1-((3S)-7-(2-((5-(2-(2,6-dioxopiperidin-3-yl)-1,3-dioxoisoindolin-5-yl)pent-4-yn-1-yl)amino)-2-oxoethoxy)-3-((R)-2-phenylmorpholine-4-carbonyl)-3,4-dihydroisoquinolin-2(1H)-yl)-3,3-dimethyl-1-oxobutan-2-yl)carbamoyl)benzo[b]thiophen-5-yl)difluoromethyl)phosphonic acid]	–
> 10	–	CC(C)(C)[C@H](NC(=O)c1cc2cc(C(F)(F)P(=O)(O)O)ccc2s1)C(=O)N1C[C@@H](OCC(=O)NCCC#Cc2ccc3c(c2)C(=O)N(C2CCC(=O)NC2=O)C3=O)C[C@H]1C(=O)N1CCO[C@H](c2ccccc2)C1 (stereo partly drawn) [Compound 482, ((2-(((2S)-1-((2S,4S)-4-(2-((4-(2-(2,6-dioxopiperidin-3-yl)-1,3-dioxoisoindolin-5-yl)but-3-yn-1-yl)amino)-2-oxoethoxy)-2-((R)-2-phenylmorpholine-4-carbonyl)pyrrolidin-1-yl)-3,3-dimethyl-1-oxobutan-2-yl)carbamoyl)benzo[b]thiophen-5-yl)difluoromethyl)phosphonic acid]	–
–	> 0.3	CC(C)(C)[C@H](NC(=O)c1cc2cc(C(F)(F)P(=O)(O)O)ccc2s1)C(=O)N1CCN(C(=O)CCCC#Cc2ccc3c(c2)CN(C2CCC(=O)NC2=O)C3=O)C[C@H]1C(=O)N1CCO[C@H](c2ccccc2)C1 (stereo partly drawn) [Compound 597, ((2-(((2S)-1-((2S)-4-(6-(2-(2,6-dioxopiperidin-3-yl)-1-oxoisoindolin-5-yl)hex-5-ynoyl)-2-((R)-2-phenylmorpholine-4-carbonyl)piperazin-1-yl)-3,3-dimethyl-1-oxobutan-2-yl)carbamoyl)benzo[b]thiophen-5-yl)difluoromethyl)phosphonic acid]	–
> 10	–	CC(C)(C)[C@H](NC(=O)c1cc2cc(C(F)(F)P(=O)(O)O)ccc2s1)C(=O)N1C[C@@H](OCC(=O)NCCC#Cc2cccc3c2C(=O)N(C2CCC(=O)NC2=O)C3=O)C[C@H]1C(=O)N1CCO[C@H](c2ccccc2)C1 (stereo partly drawn) [Compound 481, ((2-(((2S)-1-((2S,4S)-4-(2-((4-(2-(2,6-dioxopiperidin-3-yl)-1,3-dioxoisoindolin-4-yl)but-3-yn-1-yl)amino)-2-oxoethoxy)-2-((R)-2-phenylmorpholine-4-carbonyl)pyrrolidin-1-yl)-3,3-dimethyl-1-oxobutan-2-yl)carbamoyl)benzo[b]thiophen-5-yl)difluoromethyl)phosphonic acid]	–
> 10	–	O=C1CCC(N2Cc3c(C#CCCCCCC(=O)N4CC[C@H]5CC[C@@H](C(=O)N6CCOC(c7ccc(F)c(Cl)c7)C6)N5C(=O)[C@@H](NC(=O)c5cc6cc(C(F)(F)P(=O)(O)O)ccc6s5)C4)cccc3C2=O)C(=O)N1 (stereo partly drawn) [Compound 564, ((2-(((5S,8S,10aR)-8-(2-(3-chloro-4-fluorophenyl)morpholine-4-carbonyl)-3-(8-(2-(2,6-dioxopiperidin-3-yl)-1-oxoisoindolin-4-yl)oct-7-ynoyl)-6-oxodecahydropyrrolo[1,2-a][1,5]diazocin-5-yl)carbamoyl)benzo[b]thiophen-5-yl)difluoromethyl)phosphonic acid]	> 10
> 10	–	CC(C)(C)[C@H](NC(=O)c1cc2cc(C(F)(F)P(=O)(O)O)ccc2s1)C(=O)N1C[C@@H](NC(=O)CCCC#Cc2ccc3c(c2)CN(C2CCC(=O)NC2=O)C3=O)C[C@H]1C(=O)N1CCO[C@H](c2ccccc2)C1 (stereo partly drawn) [Compound 588, ((2-(((2S)-1-((2S,4S)-4-(6-(2-(2,6-dioxopiperidin-3-yl)-1-oxoisoindolin-5-yl)hex-5-ynamido)-2-((R)-2-phenylmorpholine-4-carbonyl)pyrrolidin-1-yl)-3,3-dimethyl-1-oxobutan-2-yl)carbamoyl)benzo[b]thiophen-5-yl)difluoromethyl)phosphonic acid]	> 10

Compound	DC50 [1] [µM]	DC50 (MOLM-16 cells, numeric bound, read-out: DC50 S6 MOLM-16) [µM]	DC50 [2] [µM]
Cc1ncsc1-c1ccc([C@H](C)NC(=O)[C@@H]2C[C@@H](O)CN2C(=O)[C@@H](NC(=O)CCCCCCNC(=O)CO[C@H]2C[C@@H](C(=O)N3CCO[C@H](c4ccccc4)C3)N(C(=O)[C@@H](NC(=O)c3cc4cc(C(F)(F)P(=O)(O)O)ccc4s3)C(C)(C)C)C2)C(C)(C)C)cc1 [Compound 430, (difluoro(2-(((S)-1-((2S,4S)-4-(2-((7-(((S)-1-((2S,4R)-4-hydroxy-2-(((S)-1-(4-(4-methylthiazol-5-yl)phenyl)ethyl)carbamoyl)pyrrolidin-1-yl)-3,3-dimethyl-1-oxobutan-2-yl)amino)-7-oxoheptyl)amino)-2-oxoethoxy)-2-((R)-2-phenylmorpholine-4-carbonyl)pyrrolidin-1-yl)-3,3-dimethyl-1-oxobutan-2-yl)carbamoyl)benzo[b]thiophen-5-yl)methyl)phosphonic acid]	> 10	–	> 10
Cc1ncsc1-c1ccc([C@H](CC(=O)NCCCCCCCC(=O)N[C@H]2C[C@@H](C(=O)N3CCO[C@H](c4ccccc4)C3)N(C(=O)[C@@H](NC(=O)c3cc4cc(C(F)(F)P(=O)(O)O)ccc4s3)C(C)(C)C)C2)NC(=O)[C@@H]2C[C@@H](O)CN2C(=O)[C@@H](NC(=O)C2(F)CC2)C(C)(C)C)cc1 [Compound 570, (difluoro(2-(((S)-1-((2S,4S)-4-(8-((S)-3-((2S,4R)-1-((S)-2-(1-fluorocyclopropane-1-carboxamido)-3,3-dimethylbutanoyl)-4-hydroxypyrrolidine-2-carboxamido)-3-(4-(4-methylthiazol-5-yl)phenyl)propanamido)octanamido)-2-((R)-2-phenylmorpholine-4-carbonyl)pyrrolidin-1-yl)-3,3-dimethyl-1-oxobutan-2-yl)carbamoyl)benzo[b]thiophen-5-yl)methyl)phosphonic acid]	> 10	–	–
Cc1ncsc1-c1ccc([C@H](C)NC(=O)[C@@H]2C[C@@H](O)CN2C(=O)[C@@H](NC(=O)CCCCCCCCNC(=O)CC(=O)N2CCN(C(=O)[C@@H](NC(=O)c3cc4cc(C(F)(F)P(=O)(O)O)ccc4s3)C(C)(C)C)[C@H](C(=O)N3CCO[C@H](c4ccccc4)C3)C2)C(C)(C)C)cc1 [Compound 450, (difluoro(2-(((S)-1-((S)-4-(3-((9-(((S)-1-((2S,4R)-4-hydroxy-2-(((S)-1-(4-(4-methylthiazol-5-yl)phenyl)ethyl)carbamoyl)pyrrolidin-1-yl)-3,3-dimethyl-1-oxobutan-2-yl)amino)-9-oxononyl)amino)-3-oxopropanoyl)-2-((R)-2-phenylmorpholine-4-carbonyl)piperazin-1-yl)-3,3-dimethyl-1-oxobutan-2-yl)carbamoyl)benzo[b]thiophen-5-yl)methyl)phosphonic acid]	> 10	–	> 10
Cc1ncsc1-c1ccc([C@H](C)NC(=O)[C@@H]2C[C@@H](O)CN2C(=O)[C@@H](NC(=O)CCCNC(=O)CC(=O)N2CCN(C(=O)[C@@H](NC(=O)c3cc4cc(C(F)(F)P(=O)(O)O)ccc4s3)C(C)(C)C)[C@H](C(=O)N3CCO[C@H](c4ccccc4)C3)C2)C(C)(C)C)cc1 [Compound 445, (difluoro(2-(((S)-1-((S)-4-(3-((4-(((S)-1-((2S,4R)-4-hydroxy-2-(((S)-1-(4-(4-methylthiazol-5-yl)phenyl)ethyl)carbamoyl)pyrrolidin-1-yl)-3,3-dimethyl-1-oxobutan-2-yl)amino)-4-oxobutyl)amino)-3-oxopropanoyl)-2-((R)-2-phenylmorpholine-4-carbonyl)piperazin-1-yl)-3,3-dimethyl-1-oxobutan-2-yl)carbamoyl)benzo[b]thiophen-5-yl)methyl)phosphonic acid]	> 10	–	> 10

Source: patent US20230295197A1, “STAT5 and STAT6 Degraders and Uses Thereof” (REGENTS OF THE UNIVERSITY OF MICHICAN, priority 2022, published 2023)
